Reference: ChEMBL document CHEMBL1128930, “4-cyanothiazolidides as very potent, stable inhibitors of dipeptidyl peptidase IV” (Bioorg Med Chem Lett, 1996)

Tests used:
[1] = Half life period in aqueous solution; type: ADME; conditions: for half-life: aqueous solution
Dipeptidyl peptidase 4 = Dipeptidyl peptidase 4 (Homo sapiens, UniProt P27487); assay: Inhibition of human Dipeptidyl peptidase IV
Chain of Dipeptidyl peptidase 4 (P27487 whole entry): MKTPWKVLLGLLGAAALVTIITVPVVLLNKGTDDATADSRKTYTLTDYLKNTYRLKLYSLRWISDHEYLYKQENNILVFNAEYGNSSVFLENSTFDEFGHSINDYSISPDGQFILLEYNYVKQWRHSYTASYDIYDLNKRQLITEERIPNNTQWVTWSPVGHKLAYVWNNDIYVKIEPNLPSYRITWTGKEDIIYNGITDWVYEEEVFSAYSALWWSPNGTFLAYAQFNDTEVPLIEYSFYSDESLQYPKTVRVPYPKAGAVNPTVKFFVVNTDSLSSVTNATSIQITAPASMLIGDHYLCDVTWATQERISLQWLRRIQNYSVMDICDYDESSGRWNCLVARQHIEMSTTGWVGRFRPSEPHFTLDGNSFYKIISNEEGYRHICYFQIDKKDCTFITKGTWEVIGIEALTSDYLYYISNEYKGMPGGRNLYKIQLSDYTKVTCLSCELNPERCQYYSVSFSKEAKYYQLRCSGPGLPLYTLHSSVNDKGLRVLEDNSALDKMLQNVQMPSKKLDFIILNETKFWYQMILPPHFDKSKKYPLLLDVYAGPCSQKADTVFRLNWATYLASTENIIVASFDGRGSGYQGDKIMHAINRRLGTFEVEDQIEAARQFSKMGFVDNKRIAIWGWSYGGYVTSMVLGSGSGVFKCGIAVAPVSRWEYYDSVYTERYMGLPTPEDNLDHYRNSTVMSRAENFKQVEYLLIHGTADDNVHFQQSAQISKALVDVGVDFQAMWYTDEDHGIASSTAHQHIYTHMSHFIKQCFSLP

Compound: CCC(C)[C@H](N)C(=O)N1CSCCC1C#N (stereo partly drawn)
- half-life [1]: > 48 h
- Ki (Dipeptidyl peptidase 4): 6000 nM

Compound: CCC(C)[C@H](N)C(=O)N1COC[C@H]1C#N (stereo partly drawn)
- half-life [1]: > 48 h
- Ki (Dipeptidyl peptidase 4): 450 nM

Compound: CCC(C)[C@H](N)C(=O)N1CCC[C@H]1C#N (stereo partly drawn)
- half-life [1]: 48 h

Compound: N#C[C@@H]1CSCN1C(=O)C(CCCCN)NC(=O)OCc1ccccc1 (stereo partly drawn)
- half-life [1]: > 48 h
- Ki (Dipeptidyl peptidase 4): 5 nM

Compound: N#C[C@@H]1CSCN1C(=O)C(N)C1CCCC1 (stereo partly drawn)
- half-life [1]: 5 h
- Ki (Dipeptidyl peptidase 4): 0.5 nM

Compound: CC[C@H](C)[C@H](N)C(=O)N1C[S+]([O-])C[C@H]1C#N (stereo in doubt; 7)
- half-life [1]: 1.25 h
- Ki (Dipeptidyl peptidase 4): 34 nM

Compound: CC[C@H](C)[C@H](N)C(=O)N1C[S+]([O-])C[C@H]1C#N (stereo in doubt; 9)
- T1/2 ([1]; buffer): 1.5 h
- Ki (Dipeptidyl peptidase 4): 440 nM
